{"source": "paper PMC12051620", "about": "“Molecular basis underlying the specificity of an antagonist AA92593 for mammalian melanopsins” (The Journal of Biological Chemistry, 2025)", "key": {"[1]": {"target": "T1, mouse melanopsin F94^2.61C/S188^ECL2T/S269^6.52A mutant (Mus musculus, UniProt Q9QXZ9, F126C/S221T/S310A)", "T1 construct": "expressed in transfected cells; host or cells: COS-1", "T1 sequence (Q9QXZ9 1-381 F126C/S221T/S310A)": "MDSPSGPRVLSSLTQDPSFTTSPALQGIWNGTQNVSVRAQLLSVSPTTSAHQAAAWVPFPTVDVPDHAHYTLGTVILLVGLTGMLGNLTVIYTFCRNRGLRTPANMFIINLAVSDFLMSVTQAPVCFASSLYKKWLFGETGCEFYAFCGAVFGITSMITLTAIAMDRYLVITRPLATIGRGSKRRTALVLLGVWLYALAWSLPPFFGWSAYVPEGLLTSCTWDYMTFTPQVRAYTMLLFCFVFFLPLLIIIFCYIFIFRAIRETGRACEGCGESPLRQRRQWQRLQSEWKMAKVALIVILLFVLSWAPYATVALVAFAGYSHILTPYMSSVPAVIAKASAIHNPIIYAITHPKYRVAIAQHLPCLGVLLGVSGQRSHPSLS", "experiment": "GsX GloSensor assay with Gsα/q11", "assay_type": "cell-based", "conditions": "16.7 μM AA92593, COS-1 cells", "excerpt": "(§1) The single substitutions F94^2.61C, S188^ECL2T, and S269^6.52A in mammalian melanopsins reduced the inhibitory effects of AA92593 (Figs. 2G and 3E). We suspected that the combination of these substitutions would further decrease the AA92593 effect. We thus introduced the triple substitutions F94^2.61C/S188^ECL2T/S269^6.52A into human and mouse melanopsins and examined the inhibitory effects of AA92593. In both mammalian melanopsins, the F94^2.61C/S188^ECL2T/S269^6.52A substitution reduced the inhibitory effect of AA92593 more than the single substitutions (∼63% and ∼35% reductions for human and mouse melanopsins, respectively) (Figs. 2, F and G, 3, D and E).\n(§2) For GloSensor assay, opsins, GloSensor assay sensor (coded by pGlo-22F), and NanoBiT-tagged G proteins were transiently expressed in COS-1 cells (kindly provided from Dr David Farrens, Oregon Health and Science University) using PEI as described previously ([24], [52]). For the GsX GloSensor assay ([12], [13]), each well of a 96-well assay plate (Corning) was transfected with 50 ng opsin plasmid, 16.7 ng G protein plasmid, 50 ng pGlo-22F plasmid (Promega), and 500 ng PEI in 25 μl Opti-mem and 75 μl Dulbecco's modified Eagle's medium (D-MEM). […] For GFP-fluorescence microscopy, a 35-mm cell culture dish (IWAKI) was transfected with 2 μg melanopsin-GFP plasmid and 8 μg PEI in 400 μl Opti-mem and 1.2 ml D-MEM. […]"}, "[2]": {"target": "T2, human melanopsin F94^2.61C/S188^ECL2T/S269^6.52A mutant (Homo sapiens, UniProt Q9UHM6, F127C/S222T/S313A)", "T2 construct": "expressed in transfected cells; host or cells: COS-1", "T2 sequence (Q9UHM6 1-384 F127C/S222T/S313A)": "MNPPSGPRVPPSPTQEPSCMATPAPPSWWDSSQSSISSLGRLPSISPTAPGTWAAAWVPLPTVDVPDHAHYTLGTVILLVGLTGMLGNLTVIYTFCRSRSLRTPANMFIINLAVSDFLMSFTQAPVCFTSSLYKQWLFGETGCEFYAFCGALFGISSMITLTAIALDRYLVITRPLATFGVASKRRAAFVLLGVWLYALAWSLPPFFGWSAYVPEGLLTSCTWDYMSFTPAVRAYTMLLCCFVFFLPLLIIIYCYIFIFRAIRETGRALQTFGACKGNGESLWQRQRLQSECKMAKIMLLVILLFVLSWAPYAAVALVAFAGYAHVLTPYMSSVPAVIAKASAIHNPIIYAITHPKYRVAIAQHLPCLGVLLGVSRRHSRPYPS", "experiment": "GsX GloSensor assay with Gsα/q11", "assay_type": "cell-based", "conditions": "16.7 μM AA92593, COS-1 cells", "excerpt": "as §1, §2"}}}
{"smiles": "COc1ccc(S(=O)(=O)N2CCCCC2)cc1C", "note": "[AA92593]", "values": [{"measurement": "reduction of the inhibitory effect of AA92593 vs WT", "setting": "[1]", "result": "~35", "unit": "%"}, {"measurement": "reduction of the inhibitory effect of AA92593 vs WT", "setting": "[2]", "result": "~63", "unit": "%"}]}
